From US20100041716A1, “[…] USE IN TREATING OR PREVENTING HYPERCHOLESTEROLEMIA” (MITOS PHARMACEUTICALS, INC., priority 2006, published 2010)

Tests used:
[1] = test system: NAD(P) dependent steroid dehydrogenase-like (NSDHL); assay: Gene expression in white adipose tissue of mice, Affymetrix MOE430A 2.0 microarray; type: in vivo
Protocol: (§1) In a gene expression study, Tempol was administered to experimental mice at a dose of 5 g/kg of diet from 12 months through 15 months. Mice receiving the same diet without the addition of Tempol were used as a negative control. At the age of 15 months, the white adipose tissue of the experimental animals was obtained. The expression of a broad spectrum of genes in the adipose tissue was assessed using chip-based microarray technology. Specifically, in this case an Affymetrix MOE430A 2.0 array, containing 12,960 genes, was employed. Such chips are well known in the art and are widely used to assess gene expression.

[2] = test system: farnesyl diphosphate synthase (FDPS); assay: as above; type: in vivo
Protocol: as §1

[3] = test system: lanosterol synthase (LSS); assay: as above; type: in vivo
Protocol: as §1

FDPS = assay: Protein level in patient after Tempol treatment; type: in vivo, human; details: 1500 mg per day for 180 days
Protocol: (§2) A 70-kilogram patient having levels of fasting plasma total cholesterol indicative of hypercholesterolemia is administered a dose of 1500 mg of Tempol per day for 180 days. This may be administered in a single dose, or may be administered as a number of smaller doses over a 24-hour period: for example, three 500-mg doses at eight-hour intervals. Following treatment, the protein level of each of LSS, FDPS, and NSDHL is reduced.
as §2, with “at risk for developing” for “having levels of fasting plasma total cholesterol indicative of”

LSS = assay: Protein level in patient after Tempol treatment; type: in vivo, human; details: 1500 mg per day for 180 days
Protocol: as §2
as §2, with “at risk for developing” for “having levels of fasting plasma total cholesterol indicative of”

NSDHL = assay: Protein level in patient after Tempol treatment; type: in vivo, human; details: 1500 mg per day for 180 days
Protocol: as §2
as §2, with “at risk for developing” for “having levels of fasting plasma total cholesterol indicative of”

[4] = adipose tissue of mice treated with Tempol
[5] = Example 1: 70-kilogram patient with hypercholesterolemia
[6] = Example 2: 70-kilogram patient at risk for hypercholesterolemia

CC1(C)CC(O)CC(C)(C)N1[O] [Tempol, 4-hydroxy-2,2,6,6-tetramethylpiperidine-1-oxyl]
Fold change ([1]; NSDHL expression, Tempol-treated vs control mice, white adipose tissue): −1.64 | Mean (Tempol-treated mice) ([1]; NSDHL expression, white adipose tissue, 5 g/kg of diet from 12 through 15 months): 1398 | expression of NSHDL decreased [1, 4]: 1.64 fold | Fold change ([2]; FDPS expression, Tempol-treated vs control mice, white adipose tissue): −2.08 | Mean (Tempol-treated mice) ([2]; FDPS expression, white adipose tissue, 5 g/kg of diet from 12 through 15 months): 1274 | expression of FDPS decreased [2, 4]: 2.08 fold | Fold change ([3]; LSS expression, Tempol-treated vs control mice, white adipose tissue): −2.33 | Mean (Tempol-treated mice) ([3]; LSS expression, white adipose tissue, 5 g/kg of diet from 12 through 15 months): 224 | expression of LSS decreased [3, 4]: 2.33 fold | protein level of FDPS (FDPS; [5]): reduced | protein level of FDPS (FDPS; [6]): reduced | protein level of LSS (LSS; [5]): reduced | protein level of LSS (LSS; [6]): reduced | protein level of NSDHL (NSDHL; [5]): reduced | protein level of NSDHL (NSDHL; [6]): reduced
